compound: c1ccc2c(CCNc3ccc(Nc4ccncc4)cc3)c[nH]c2c1 [Serdemetan] + C[C@]1(O)C[C@@H](c2nc(-c3ccc4ccc(-c5ccccc5)nc4c3)c3c(N)nccn32)C1 [Linsitinib] (partner 1 µM); assay: relative viability (nuclei count vs DMSO), 5 days (fraction); higher = more cells survive; settings: first compound 4 µM
How it was run: (§1)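 For relative viability, nuclei counts in treated wells were divided by those in vehicle wells. Lung cancer cell lines had been pin-tool dosed in 1536-well plates the day after seeding and cultured for 5 days, then fixed and stained in one step (final 0.05% Triton X-100, 1% formaldehyde, 1 ug/ml Hoechst) and imaged at 4×. Doses were one drug alone or a fixed anchor-drug dose plus five library-drug doses (not always all listed) in √10 steps, and values are duplicate-plate medians.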

Cell Line | relative viability
NCI-H1299 | 0.669
NCI-H1563 | 0.759
ABC-1 | 0.489

compound: C1CC(C2=C(C1)C3=C(N2)C=CC(=C3)Cl)C(=O)N [Selisistat] + Cc1nc(NC(=O)N2CCC[C@H]2C(N)=O)sc1-c1ccnc(C(C)(C)C(F)(F)F)c1 [Alpelisib] (partner 2 µM); assay: as above; settings: first compound 0.4 µM
How it was run: as §1

Cell Line | relative viability
NCI-H727 | 0.553
EBC-1 | 0.982
NCI-H1703 | 0.28
NCI-H1993 | 0.575
SW 1573 | 0.703
NCI-H838 | 1.11
LCLC-103H | 1.03
NCI-H520 | 0.762
NCI-H2126 | 0.812
EMC-BAC-2 | 0.693
NCI-H2085 | 1.04
Calu-6 | 1.02
HCC-366 | 0.341
NCI-H1666 | 1.06
NCI-H596 | 0.587
LK-2 | 1.05
NCI-H2087 | 1.33

Cell Line | relative viability
SK-MES-1 | 1.01
H3255 | 0.724
COR-L23 | 0.921
COR-L 105 | 0.888
IA-LM | 0.882
LOU-NH91 | 0.71
NCI-H2170 | 0.885
NCI-H2405 | 0.769
HOP-62 | 0.796
HCC-44 | 0.86
A549 | 0.976
LU99A | 0.538
BEN | 0.953
HCC-78 | 0.439
NCI-H1299 | 1.02
NCI-H1563 | 0.834
ABC-1 | 0.977

same assay, conditions: first compound 1.265 µM

Cell Line | relative viability
NCI-H727 | 0.714
EBC-1 | 0.891
NCI-H1703 | 0.385
NCI-H1993 | 0.67
SW 1573 | 0.884
NCI-H838 | 0.971
LCLC-103H | 0.963
NCI-H520 | 0.736
NCI-H2126 | 0.77
EMC-BAC-2 | 0.708
NCI-H2085 | 0.983
Calu-6 | 0.896
HCC-366 | 0.337
NCI-H1666 | 0.978
NCI-H596 | 0.482
LK-2 | 0.968
NCI-H2087 | 0.933

Cell Line | relative viability
SK-MES-1 | 0.951
H3255 | 0.662
COR-L23 | 0.872
COR-L 105 | 0.929
IA-LM | 0.79
LOU-NH91 | 0.681
NCI-H2170 | 0.805
HOP-62 | 1.02
HCC-44 | 0.874
A549 | 0.841
LU99A | 0.553
BEN | 0.986
HCC-78 | 0.367
NCI-H1299 | 1.05
NCI-H1563 | 0.889
ABC-1 | 0.972

same assay, conditions: first compound 4 µM

Cell Line | relative viability
EBC-1 | 0.806
NCI-H1703 | 0.265
SW 1573 | 0.716
NCI-H838 | 0.912
LCLC-103H | 0.99
NCI-H520 | 1.07
NCI-H2126 | 0.758
EMC-BAC-2 | 0.674
NCI-H2085 | 0.968
Calu-6 | 1.01
HCC-366 | 0.268
NCI-H1666 | 0.946
NCI-H596 | 0.42
LK-2 | 0.981
NCI-H2087 | 1
SK-MES-1 | 0.836

Cell Line | relative viability
H3255 | 0.725
COR-L23 | 0.793
COR-L 105 | 1.03
IA-LM | 0.545
LOU-NH91 | 0.619
NCI-H2170 | 0.815
HOP-62 | 1.06
HCC-44 | 0.853
A549 | 0.652
LU99A | 0.565
BEN | 0.818
HCC-78 | 0.349
NCI-H1299 | 1.14
NCI-H1563 | 0.853
ABC-1 | 0.872

same assay, conditions: first compound 12.65 µM

Cell Line | relative viability
EBC-1 | 0.807
NCI-H1703 | 0.336
NCI-H1993 | 0.775
SW 1573 | 0.804
NCI-H838 | 1.1
LCLC-103H | 0.92
NCI-H520 | 0.957
NCI-H2126 | 0.863
EMC-BAC-2 | 0.697
NCI-H2085 | 1.06
Calu-6 | 0.841
HCC-366 | 0.397
NCI-H1666 | 0.847
NCI-H596 | 0.502
LK-2 | 0.989
NCI-H2087 | 0.971
SK-MES-1 | 0.838

Cell Line | relative viability
H3255 | 0.62
COR-L23 | 0.767
COR-L 105 | 0.964
IA-LM | 0.74
LOU-NH91 | 0.71
NCI-H2170 | 0.771
NCI-H2405 | 0.834
HOP-62 | 0.944
HCC-44 | 0.846
A549 | 0.843
LU99A | 0.505
BEN | 0.9
HCC-78 | 0.34
NCI-H1299 | 1.03
NCI-H1563 | 0.778
ABC-1 | 1.15

same assay, conditions: first compound 40 µM

Cell Line | relative viability
NCI-H727 | 0.458
EBC-1 | 0.911
NCI-H1703 | 0.397
NCI-H1993 | 0.721
SW 1573 | 0.864
NCI-H838 | 0.954
LCLC-103H | 0.94
NCI-H520 | 0.73
NCI-H2126 | 0.81
EMC-BAC-2 | 0.777
NCI-H2085 | 0.919
Calu-6 | 0.873
HCC-366 | 0.354
NCI-H1666 | 0.748
NCI-H596 | 0.482
LK-2 | 1.01
NCI-H2087 | 1.04
SK-MES-1 | 0.896
H3255 | 0.786
COR-L23 | 0.766
COR-L 105 | 0.846
IA-LM | 0.696
LOU-NH91 | 0.723
NCI-H2170 | 0.881
NCI-H2405 | 0.845
HOP-62 | 1
